# From ChEMBL document CHEMBL3864179, “Development of 1H-Pyrazolo[3,4-b]pyridines as Metabotropic Glutamate Receptor 5 Positive Allosteric Modulators” (ACS Med Chem Lett, 2016)
# Columns and labels:
# [1] = Plasma concentration in C57Bl/6 mouse at 30 mg/kg, ip measured after 60 mins; type: ADME, organism-based
# [2] = Ratio of drug level in brain to plasma in C57Bl/6 mouse at 30 mg/kg, ip; type: ADME, organism-based; details: read-out: BPR
structure (smiles),measurement,setting,value
N#Cc1c(-c2ccccc2)nc2[nH]nc(-c3ccc(Cl)c(C(F)(F)F)c3)c2c1C1CC1,concentration at 1 h,[1],2800 nM
same,Kp,[2],0.5
